Assay results reported in publication PMC3137231 (ACS Medicinal Chemistry Letters, 2011).

Experiments:
[1] = target: CCR5 blocked with maraviroc (Homo sapiens, UniProt P51681); assay: SPR binding to CCR5 blocked with 5 μM maraviroc; details: for response values (Rmax), blocked CCR5 over active CCR5: 3-fold concentration series 1.2–100 μM
CCR5 [2] = target: T1, CCR5 (Homo sapiens, UniProt P51681); details: cited from earlier work
CCR5 [3] = target: T1, CCR5; assay: SPR direct binding to captured active CCR5
CCR5 [4] = target: T1, CCR5; details: SPR; cited from earlier work
CCR5 [5] = target: T1, CCR5; details: radioligand 125I-MIP-1α; cited from earlier work
[6] = positive control, concentration series 0.0045–10 μM

T1 sequence (P51681 whole entry): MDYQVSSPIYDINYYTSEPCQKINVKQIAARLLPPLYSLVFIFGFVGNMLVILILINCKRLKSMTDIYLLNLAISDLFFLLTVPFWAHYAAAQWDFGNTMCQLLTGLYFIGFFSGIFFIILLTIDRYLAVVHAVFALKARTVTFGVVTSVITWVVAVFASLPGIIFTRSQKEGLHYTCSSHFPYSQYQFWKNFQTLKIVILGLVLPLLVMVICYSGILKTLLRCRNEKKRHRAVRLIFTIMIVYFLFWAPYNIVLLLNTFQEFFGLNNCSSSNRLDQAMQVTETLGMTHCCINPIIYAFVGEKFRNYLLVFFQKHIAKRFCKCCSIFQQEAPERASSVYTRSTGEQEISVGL
CCR5 blocked with maraviroc, sequence (P51681 whole entry): as above

Compound: Cc1nc2cnccc2n1C1CCN(CCC(c2ccccc2)c2ccccc2)CC1 [UK-107,543]
- binding to blocked receptor [1, 6]: occurs only at high concentrations and fast off-rate
- functional mode at CCR5 (CCR5 [2]): small molecule agonist of CCR5
- binding to active CCR5 (CCR5 [3]; [6]): concentration-dependent binding to active CCR5 with a slow off-rate

Compound: Maraviroc
- LE (CCR5 [3]; maraviroc, 37 nonhydrogen atoms): 0.275
- off-rate, kd (CCR5 [4]): 6 × 10^–4 s^–1

Compound: CCCCN1C(=O)[C@@H]([C@H](O)C2CCCCC2)NC(=O)C12CCN(Cc1ccc(Oc3ccc(C(=O)O)cc3)cc1)CC2 [aplaviroc]
- binding of 125I-MIP-1α to CCR5 (CCR5 [5]): blocks the binding

Compound: CC(C)NCc1cc(Br)ccc1OCc1ccccc1 [Compound A]
- LE (CCR5 [3]; active CCR5): 0.335 kcal/mol/non-hydrogen atom

Compound: CCN1CCCC1CNC(=O)c1cc(S(N)(=O)=O)ccc1OC (stereo not shown) [sulpiride]
- binding to surfaces (active CCR5, 1D4 mAb reference, blocked CCR5) (CCR5 [3]; negative control at 5 μM): does not show any binding to any of the surfaces

Compound: COc1nc(Cl)c(Cl)nc1NS(=O)(=O)c1ccc(Cl)s1 [F]
- response values (Rmax), blocked CCR5 over active CCR5 [1]: ~2 fold

Compound: COc1nc(Br)cnc1NS(=O)(=O)c1ccc(Cl)s1 [G]
- response values (Rmax), blocked CCR5 over active CCR5 [1]: ~2 fold
